Reference: ChEMBL document CHEMBL4831550, “Fusidane-Type Antibiotics from the Marine-Derived Fungus Simplicillium sp. SCSIO 41513” (2021)
≈ marks a conversion by molar mass, not a printed value.

system: Staphylococcus aureus; assay: Antibacterial activity against Staphylococcus aureus ATCC 6538 assessed as inhibition of bacterial growth incubated for 24 hrs by CLSI based microdilution method; format: functional

Question: How did the MIC99.9 turn out when `C/C(=C\CCC1=C2[C@H](C[C@@]3(C)[C@H]2C[C@@H](O)[C@H]2[C@@]4(C)CC[C@@H](O)[C@@H](CO)[C@@H]4CC[C@@]23C)OC1=O)C(=O)O` was run?
Answer: The MIC99.9 was greater than 100 µg/mL.

Question: For `CC(=O)O[C@H]1C[C@@]2(C)[C@@H](C[C@@H](O)[C@H]3[C@@]4(C)CC[C@@H](O)[C@@H](C)[C@@H]4CC[C@@]32C)/C1=C(\CC/C=C(\C)CO)C(=O)O`, which MIC99.9 is on record?
Answer: Its MIC99.9 is 2.5 µg/mL (≈ 4.69 µM).

Question: For `C/C(=C\CCC1=C2[C@H](C[C@@]3(C)[C@H]2C[C@@H](O)[C@H]2[C@@]4(C)CC[C@@H](O)[C@@H](C)[C@@H]4CC[C@@]23C)OC1=O)CO`, which MIC99.9 is on record?
Answer: Its MIC99.9 is greater than 100 µg/mL.

Question: How did the MIC99.9 turn out when `CC(=O)O[C@H]1C[C@@]2(C)[C@@H](CC(=O)[C@H]3[C@@]4(C)CC[C@@H](O)[C@@H](C)[C@@H]4CC[C@@]32C)/C1=C(\CCC=C(C)C)C(=O)O` was run?
Answer: Its MIC99.9 is 0.078 µg/mL (≈ 0.152 µM).

Question: For `C/C(=C\CCC1=C2[C@H](C[C@@]3(C)[C@H]2C[C@@H](O)[C@H]2[C@@]4(C)CC[C@@H](O)[C@@H](C)[C@@H]4CC[C@@]23CO)OC1=O)C(=O)O`, which MIC99.9 is on record?
Answer: The MIC99.9 was greater than 100 µg/mL.

Question: Which MIC99.9 does the source give for `C/C(=C\CCC1=C2[C@H](C[C@@]3(C)[C@H]2C[C@@H](O)[C@H]2[C@@]4(C)CC[C@@H](O)[C@@H](C)[C@@H]4C[C@@H](O)[C@@]23C)OC1=O)C(=O)O` here?
Answer: The MIC99.9 was greater than 100 µg/mL.
